Data on nine compounds can be found in US10821120B2, “Method for controlling neuroinflammation” (N.V. NUTRICIA, priority 2016, dated 2020).

For assay [1], the system named is LPS-stimulated BV-2 cells. Kind of assay: Griess assay (nitric oxide release) from LPS-activated BV-2 microglia. The format is cell-based, mouse. The note with it: vitamin D 1 μg/ml, DHA 20 μM; for NO release as percentage of the NO released by cells stimulated only with LPS: Example 1, high non-toxic concentrations: vitamin A 1.75 μM, EPA 20 μM, 24 h pretreatment, then 24 h with LPS 50 ng/ml plus same nutrients, LPS control = 100%; for effect on LPS-induced NO release (in words): Example 1 concentrations: vitamin B6 29 μM, folic acid 24 μM, vitamin B12 0.2 μM, vitamin A 1.75 μM, versus LPS control. From the text:
(§1) BV-2 cell cultures: BV-2 cells were obtained from IRCCS (Azienda Ospedaliera Universitaria San Martino—IST Istituto Nazionale per la Ricerca sul Cancro, Genova, Italy). BV-2 cell lines are immortalized cell lines derived from C57bl/6 mouse. These are considered to closely resemble the physiology of primary microglia cells and form a well-established model for investigation in vitro (Henn et al., ALTEX, 2009, 26, 83-94). Lipopolysaccharide (LPS), an endotoxin derived from the cell wall of gram negative bacteria, is the most widely used agent to activate immune cells. Cells were cultured in Dulbecco's Modified Eagle Medium (DMEM, Gibco) supplemented with 10% of heat-inactivated fetal bovine serum (Invitrogen), 10,000 units/ml penicillin (Gibco), 10,000 μg/ml streptomycin (Gibco) and 200 mM L-glutamine (Gibco) and maintained at 37° C. and 5% CO2. Twenty-four hours before the experiment, cells were plated on 96 well plates (Corning) at a cell density of approximately 20,000 cells/well and maintained in DMEM supplemented with 2% fetal bovine serum, 10,000 units/ml penicillin, 10,000 μg/ml streptomycin and 200 mM L-glutamine, for the duration of the experiment.
(§2) Cell viability: Cell proliferation and viability were assessed with 2,3-bis(2-methoxy-4-nitro-5-sulfophenyl)-2H-tetrazolium-5-carboxanilide inner salt (XTT, Sigma) at a concentration of 1 mg/ml. Phenazine methosulfate (PMS, Sigma) at a concentration of 200 mg/ml was added as an electron coupling reagent. The XTT/PMS solution in sterile water (100 μl) was added to each well. After 2 h, the absorbance was measured at 450 nm (and 690 nm as a reference). The absorbance was corrected for the number of cells. The viability test was repeated for each experiment as a within plate control.
Griess assay (nitric oxide release): Cells were treated for 24 h with different combinations of nutrients. This treatment was followed by exchanging the medium for fresh medium with LPS (50 ng/ml) combined with the same nutrients. After incubation for 24 h, media were collected for measurement of NO release. The stable product of NO released by the BV-2 cells is NO2^−. The concentration of NO2^− was measured with a Griess assay Kit (Promega) according to the manufacturer's instructions. Data were corrected for cell viability (the viability of untreated control cells represented 100% of viability). Data are represented as percentage of the NO released by cells stimulated only with LPS. To assess variability between the tests, data from the treatment with LPS alone were pooled and an average release between experiments was calculated for NO. For treatment with LPS alone, the NO release is represented as the percentage of the average release between experiments.
(§3) Statistical analysis: All experiments were performed at least in triplicate. The data are presented as dots representing means and bars representing standard error mean (SEM). Due to the small sample size, non-parametric statistical tests were used. Data were analyzed with the Kruskal-Wallis H test and if the statistical significance was reached, Mann Whithey U test with Bonferroni-Holm post-hoc correction to allow multiple comparisons was performed. A difference was considered statistically significant when the probability (p) was <0.05.
(§4) BV-2 cells were pretreated for 24 h with different nutrients: (I) vitamin A (1.75 μM); (II) vitamin D (1 μg/ml); (III) DHA (20 μM); (IV) EPA (20 μM); (V) vitamin B6 (29 μM, including 19 μM already present in the culture medium); (VI) folic acid (24 μM, including 9 μM already present in the culture medium); (VII) vitamin B12 (0.2 μM). This was followed by 24 h incubation with LPS (50 ng/ml) combined with the same nutrients. Media were collected for measurement of NO release with the Griess assay (FIG. 1A) and IL-6 release with ELISA (FIG. 1B). NO and IL-6 levels are presented as the percentage of the concentration produced by cells treated with LPS alone (LPS control, dashed line).
On the technique in general: Griess reagent forms a coloured azo dye with nitrite.

In assay [2] the test system is LPS-stimulated BV-2 cells. As to the kind of experiment: ELISA (IL-6) release from LPS-activated BV-2 microglia. In kind it is cell-based, mouse. To be noted: vitamin D 1 μg/ml, DHA 20 μM; for IL-6 release as percentage of the IL-6 released by cells stimulated only with LPS: Example 1, high non-toxic concentrations: vitamin A 1.75 μM, EPA 20 μM, 24 h pretreatment, then 24 h with LPS 50 ng/ml plus same nutrients, LPS control = 100%; for effect on LPS-induced IL-6 release (in words): Example 1 concentrations: vitamin B6 29 μM, folic acid 24 μM, vitamin B12 0.2 μM, vitamin A 1.75 μM, versus LPS control.
From the text: as §1, §2
ELISA (IL-6): Cells were treated for 24 h with different combinations of nutrients. Subsequently, the medium was removed and cells were incubated for 24 h in fresh medium with LPS (50 ng/ml) combined with the same nutrients. Media were collected for measurement of IL-6 release. Collected samples were stored at −80° C. until further analysis. The cytokine levels were assessed using ELISA MAX™ Deluxe from Biolegend according to the manufacturer's protocol. Data were corrected for cell viability. Data are represented as percentage of the IL-6 released by cells stimulated only with LPS. To assess variability between the tests, data from the treatment with LPS alone were pooled and an average release between experiments was calculated for IL-6. For LPS alone treatment the IL-6 release is represented as the percentage of the average release between experiments.
as §3
as §4, with “line). All graphs represent the results from 4 independent experiments (mean±SEM).” for “line).”
In general terms: An ELISA detects its analyte on a solid surface through an enzyme-linked reagent.

As for `C=C1CC[C@H](O)C/C1=C/C=C1\CCC[C@]2(C)[C@@H]([C@H](C)CCCC(C)C)CC[C@@H]12` [Vitamin D, vitamin D3], in assay [1], the “NO release as percentage of the NO released by cells stimulated only with LPS” value (“NO release as percentage” for short) came out at 43%. For the same compound, the “IL-6 release as percentage of the IL-6 released by cells stimulated only with LPS” value (“IL-6 release as percentage” for short) in assay [2] came out at 43%.

Take vitamin B12: the “effect on LPS-induced NO release (in words)” value in assay [1] is recorded as “did not cause any significant effect”. Moreover, the “effect on LPS-induced IL-6 release (in words)” value in assay [2] was “did not cause any significant effects”.

For the compound `N[C@@H](Cc1c[nH]c2ccccc12)C(=O)O` [L-tryptophan], the “effect on LPS-induced NO release (in words)” value in assay [1] was “did not cause any significant effect”. In addition, in assay [2], the “effect on LPS-induced IL-6 release (in words)” value is recorded as “did not cause any significant effects”.

As for `Nc1nc2ncc(CNc3ccc(C(=O)N[C@@H](CCC(=O)O)C(=O)O)cc3)nc2c(=O)[nH]1` [Vitamin B9, folic acid], the “effect on LPS-induced NO release (in words)” value in assay [1] was “did not cause any significant effect”. For the same compound, the “effect on LPS-induced IL-6 release (in words)” value in assay [2] is “did not cause any significant effects”.

As to `N[C@@H](CS)C(=O)O` [L-cysteine], the “effect on LPS-induced NO release (in words)” value in assay [1] is “did not cause any significant effect”. The “effect on LPS-induced IL-6 release (in words)” value in assay [2] is listed as “did not cause any significant effects”.

Turning to `Cc1ncc(CO)c(CO)c1O.Cl` [Vitamin B6, vitamin B6], in assay [1], the “effect on LPS-induced NO release (in words)” value is “did not cause any significant effect”. In addition, in assay [2], the “effect on LPS-induced IL-6 release (in words)” value is reported as “did not cause any significant effects”.

As to `CC/C=C\C/C=C\C/C=C\C/C=C\C/C=C\C/C=C\CCC(=O)O` [DHA, cis-4,7,10,13,16,19-docosahexaenoic acid], the “NO release as percentage” value in assay [1] is given as 68%. In addition, in assay [2], the “IL-6 release as percentage” value was 68%.

Regarding `CC/C=C\C/C=C\C/C=C\C/C=C\C/C=C\CCCC(=O)O` [EPA, cis-5,8,11,14,17-eicosapentaenoic acid], the “NO release as percentage” value in assay [1] is given as 80%. Further, in assay [2], the “IL-6 release as percentage” value was determined as 70%.

As for vitamin A, the “NO release as percentage” value in assay [1] was found to be 39%. In addition, the “IL-6 release as percentage” value in assay [2] is 42%.
